# Read-outs that look alike come from different tables or passages of the source.
# Key:
# [1] = target: T1, ADORA2A (Homo sapiens, UniProt P29274); test: Safety47 Calcium Flux ADORA2A; type: cell-based; conditions: for Emax: read-out: Max Response; for EC50: read-out: RC50 (EC50); for IC50: read-out: RC50 (IC50)
# T1 construct: purchased Eurofins Panlab Safety47 Safety Scan
# [2] = target: T2, CHRM1 (Homo sapiens, UniProt P11229); test: Safety47 Calcium Flux CHRM1; type: cell-based; conditions: for Emax: read-out: Max Response; for EC50: read-out: RC50 (EC50); for IC50: read-out: RC50 (IC50)
# T2 construct: purchased Eurofins Panlab Safety47 Safety Scan
# T2 sequence (P11229 1-460): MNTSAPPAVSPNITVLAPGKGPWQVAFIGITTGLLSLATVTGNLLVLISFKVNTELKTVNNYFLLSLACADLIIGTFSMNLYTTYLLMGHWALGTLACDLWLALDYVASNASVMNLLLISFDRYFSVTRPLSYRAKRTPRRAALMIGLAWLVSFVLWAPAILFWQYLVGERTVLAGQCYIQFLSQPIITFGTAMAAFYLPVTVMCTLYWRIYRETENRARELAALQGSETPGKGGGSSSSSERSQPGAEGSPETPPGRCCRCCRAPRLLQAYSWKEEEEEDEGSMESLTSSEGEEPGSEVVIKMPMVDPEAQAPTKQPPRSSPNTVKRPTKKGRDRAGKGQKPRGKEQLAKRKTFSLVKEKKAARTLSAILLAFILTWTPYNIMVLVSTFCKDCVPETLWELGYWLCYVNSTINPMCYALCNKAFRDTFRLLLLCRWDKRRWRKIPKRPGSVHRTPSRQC
# [3] = target: T3, ADRB1 (Homo sapiens, UniProt P08588); test: Safety47 cAMP ADRB1; type: cell-based; conditions: for Emax: read-out: Max Response; for EC50: read-out: RC50 (EC50); for IC50: read-out: RC50 (IC50)
# T3 construct: purchased Eurofins Panlab Safety47 Safety Scan
# [4] = target: T4, CHRM2 (Homo sapiens, UniProt P08172); test: Safety47 cAMP CHRM2; type: cell-based; conditions: for Emax: read-out: Max Response; for EC50: read-out: RC50 (EC50); for IC50: read-out: RC50 (IC50)
# T4 construct: purchased Eurofins Panlab Safety47 Safety Scan
# T4 sequence (P08172 1-466): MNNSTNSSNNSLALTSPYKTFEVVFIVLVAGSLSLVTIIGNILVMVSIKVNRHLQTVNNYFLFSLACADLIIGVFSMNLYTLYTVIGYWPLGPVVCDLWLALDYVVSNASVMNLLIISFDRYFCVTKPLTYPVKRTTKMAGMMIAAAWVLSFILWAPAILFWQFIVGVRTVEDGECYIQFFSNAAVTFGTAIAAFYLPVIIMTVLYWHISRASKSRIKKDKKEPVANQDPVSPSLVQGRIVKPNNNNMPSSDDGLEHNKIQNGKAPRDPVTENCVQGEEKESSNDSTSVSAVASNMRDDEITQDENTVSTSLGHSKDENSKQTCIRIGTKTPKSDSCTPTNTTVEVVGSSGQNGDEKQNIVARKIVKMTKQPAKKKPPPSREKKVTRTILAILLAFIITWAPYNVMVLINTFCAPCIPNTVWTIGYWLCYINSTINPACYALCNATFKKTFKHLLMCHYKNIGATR
# [5] = target: T5, CNR1 (Homo sapiens, UniProt P21554); test: Safety47 cAMP CNR1; type: cell-based; conditions: for Emax: read-out: Max Response; for EC50: read-out: RC50 (EC50); for IC50: read-out: RC50 (IC50)
# T5 construct: purchased Eurofins Panlab Safety47 Safety Scan
# [6] = target: T6, HRH2 (Homo sapiens, UniProt P25021); test: Safety47 cAMP HRH2; type: cell-based; conditions: for Emax: read-out: Max Response; for EC50: read-out: RC50 (EC50); for IC50: read-out: RC50 (IC50)
# T6 construct: purchased Eurofins Panlab Safety47 Safety Scan
# [7] = target: T7, HTR1B (Homo sapiens, UniProt P28222); test: Safety47 cAMP HTR1B; type: cell-based; conditions: for Emax: read-out: Max Response; for EC50: read-out: RC50 (EC50); for IC50: read-out: RC50 (IC50)
# T7 construct: purchased Eurofins Panlab (Safety47 Safety Scan, contract panel)
# [8] = target: T8, OPRM1 (Homo sapiens, UniProt P35372); test: Safety47 cAMP OPRM1; type: cell-based; conditions: for Emax: OPRM1, cAMP, read-out: Max Response; for EC50: read-out: RC50 (EC50); for IC50: read-out: RC50 (IC50)
# T8 construct: purchased Eurofins Panlab (Safety47 Safety Scan, contract panel)
# T8 sequence (P35372 whole entry, species assumed): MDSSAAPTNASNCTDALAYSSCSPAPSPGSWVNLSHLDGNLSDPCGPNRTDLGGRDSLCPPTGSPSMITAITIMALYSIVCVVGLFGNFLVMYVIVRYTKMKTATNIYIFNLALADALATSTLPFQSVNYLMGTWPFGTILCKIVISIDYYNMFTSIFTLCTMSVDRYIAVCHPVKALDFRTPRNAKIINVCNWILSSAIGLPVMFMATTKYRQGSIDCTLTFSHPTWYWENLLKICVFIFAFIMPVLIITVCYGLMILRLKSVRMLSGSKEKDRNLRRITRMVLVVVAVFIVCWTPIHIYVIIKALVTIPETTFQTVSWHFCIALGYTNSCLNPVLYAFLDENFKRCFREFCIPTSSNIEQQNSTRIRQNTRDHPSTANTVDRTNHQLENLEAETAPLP
# [9] = target: T9, CAV1.2 (Homo sapiens, UniProt Q13936); test: Safety47 Ion Channel CAV1.2; type: cell-based; conditions: Blocker; for Emax: read-out: Max Response; for IC50: read-out: RC50 (IC50)
# T9 construct: purchased Eurofins Panlab (Safety47 Safety Scan, contract panel)
# T9 sequence (Q13936 whole entry): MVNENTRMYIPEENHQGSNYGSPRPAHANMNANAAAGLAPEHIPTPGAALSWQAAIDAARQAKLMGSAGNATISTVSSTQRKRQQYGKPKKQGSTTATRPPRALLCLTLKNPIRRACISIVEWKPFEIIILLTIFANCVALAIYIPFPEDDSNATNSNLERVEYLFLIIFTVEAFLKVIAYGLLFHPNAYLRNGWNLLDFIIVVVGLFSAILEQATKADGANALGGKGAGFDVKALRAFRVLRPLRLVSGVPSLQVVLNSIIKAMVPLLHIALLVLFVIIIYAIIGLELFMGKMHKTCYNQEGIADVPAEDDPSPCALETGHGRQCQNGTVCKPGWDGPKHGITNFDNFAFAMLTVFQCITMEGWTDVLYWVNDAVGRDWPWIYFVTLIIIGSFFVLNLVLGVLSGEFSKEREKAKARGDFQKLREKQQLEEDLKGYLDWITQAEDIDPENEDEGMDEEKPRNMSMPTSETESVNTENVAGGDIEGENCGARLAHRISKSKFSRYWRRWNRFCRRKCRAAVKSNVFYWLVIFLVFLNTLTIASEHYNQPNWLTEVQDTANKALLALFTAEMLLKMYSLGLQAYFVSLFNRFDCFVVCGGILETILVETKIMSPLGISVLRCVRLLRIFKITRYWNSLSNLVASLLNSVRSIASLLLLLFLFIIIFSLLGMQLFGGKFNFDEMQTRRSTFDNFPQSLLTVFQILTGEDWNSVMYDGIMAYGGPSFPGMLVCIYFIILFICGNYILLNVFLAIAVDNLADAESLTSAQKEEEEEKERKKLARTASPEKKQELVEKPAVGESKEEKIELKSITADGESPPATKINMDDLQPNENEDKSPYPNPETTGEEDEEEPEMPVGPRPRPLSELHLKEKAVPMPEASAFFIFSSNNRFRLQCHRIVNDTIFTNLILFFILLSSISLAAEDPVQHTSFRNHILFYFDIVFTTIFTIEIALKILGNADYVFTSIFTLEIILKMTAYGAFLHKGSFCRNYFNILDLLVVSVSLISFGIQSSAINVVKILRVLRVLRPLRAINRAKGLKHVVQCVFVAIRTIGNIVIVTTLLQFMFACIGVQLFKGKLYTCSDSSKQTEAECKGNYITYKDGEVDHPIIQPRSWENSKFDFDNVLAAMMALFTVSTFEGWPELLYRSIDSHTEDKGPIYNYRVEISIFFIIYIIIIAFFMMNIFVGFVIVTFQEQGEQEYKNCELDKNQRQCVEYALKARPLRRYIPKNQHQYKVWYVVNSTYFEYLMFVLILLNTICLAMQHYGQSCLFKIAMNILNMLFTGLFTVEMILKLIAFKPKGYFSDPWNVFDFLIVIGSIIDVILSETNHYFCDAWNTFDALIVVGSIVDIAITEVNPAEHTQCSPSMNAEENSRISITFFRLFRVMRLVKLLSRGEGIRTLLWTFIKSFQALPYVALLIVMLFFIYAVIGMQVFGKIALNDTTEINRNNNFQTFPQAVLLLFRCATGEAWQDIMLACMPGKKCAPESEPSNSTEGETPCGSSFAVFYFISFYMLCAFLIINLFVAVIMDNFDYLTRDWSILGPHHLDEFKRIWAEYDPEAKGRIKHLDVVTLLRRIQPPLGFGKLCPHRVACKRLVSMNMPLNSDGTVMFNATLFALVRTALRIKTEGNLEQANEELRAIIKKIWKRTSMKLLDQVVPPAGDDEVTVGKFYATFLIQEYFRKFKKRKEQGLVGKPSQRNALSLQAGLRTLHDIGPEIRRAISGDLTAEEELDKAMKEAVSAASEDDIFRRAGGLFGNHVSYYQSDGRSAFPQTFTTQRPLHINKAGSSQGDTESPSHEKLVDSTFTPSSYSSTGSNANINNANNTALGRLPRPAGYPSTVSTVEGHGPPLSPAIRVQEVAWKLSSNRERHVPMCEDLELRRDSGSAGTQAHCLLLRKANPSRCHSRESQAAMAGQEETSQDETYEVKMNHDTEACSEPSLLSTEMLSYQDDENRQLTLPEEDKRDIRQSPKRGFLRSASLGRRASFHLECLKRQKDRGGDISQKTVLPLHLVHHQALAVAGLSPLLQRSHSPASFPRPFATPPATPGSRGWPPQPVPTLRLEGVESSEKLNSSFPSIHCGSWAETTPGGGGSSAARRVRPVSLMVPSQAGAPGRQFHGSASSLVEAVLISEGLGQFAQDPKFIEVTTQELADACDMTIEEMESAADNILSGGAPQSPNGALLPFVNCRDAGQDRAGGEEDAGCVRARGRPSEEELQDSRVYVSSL
# T9 sequence (Q08289 whole entry partner): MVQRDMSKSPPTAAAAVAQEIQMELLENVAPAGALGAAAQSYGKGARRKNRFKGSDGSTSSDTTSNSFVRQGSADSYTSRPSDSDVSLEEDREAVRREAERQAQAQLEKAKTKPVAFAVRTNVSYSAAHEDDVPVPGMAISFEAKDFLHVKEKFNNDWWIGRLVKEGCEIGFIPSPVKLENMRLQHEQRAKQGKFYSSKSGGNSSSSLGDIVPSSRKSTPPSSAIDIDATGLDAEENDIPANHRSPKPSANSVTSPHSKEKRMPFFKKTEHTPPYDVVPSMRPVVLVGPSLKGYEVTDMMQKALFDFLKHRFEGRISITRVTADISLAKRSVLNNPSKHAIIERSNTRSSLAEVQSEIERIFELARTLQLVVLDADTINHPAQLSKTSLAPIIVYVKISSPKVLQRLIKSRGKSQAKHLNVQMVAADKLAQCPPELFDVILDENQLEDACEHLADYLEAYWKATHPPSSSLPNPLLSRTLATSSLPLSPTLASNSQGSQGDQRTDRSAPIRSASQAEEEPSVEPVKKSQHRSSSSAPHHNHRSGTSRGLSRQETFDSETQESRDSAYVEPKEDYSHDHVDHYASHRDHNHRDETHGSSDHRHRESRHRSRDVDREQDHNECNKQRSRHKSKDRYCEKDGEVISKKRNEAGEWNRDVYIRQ
# T9 sequence (P54289 25-946 partner limits assumed): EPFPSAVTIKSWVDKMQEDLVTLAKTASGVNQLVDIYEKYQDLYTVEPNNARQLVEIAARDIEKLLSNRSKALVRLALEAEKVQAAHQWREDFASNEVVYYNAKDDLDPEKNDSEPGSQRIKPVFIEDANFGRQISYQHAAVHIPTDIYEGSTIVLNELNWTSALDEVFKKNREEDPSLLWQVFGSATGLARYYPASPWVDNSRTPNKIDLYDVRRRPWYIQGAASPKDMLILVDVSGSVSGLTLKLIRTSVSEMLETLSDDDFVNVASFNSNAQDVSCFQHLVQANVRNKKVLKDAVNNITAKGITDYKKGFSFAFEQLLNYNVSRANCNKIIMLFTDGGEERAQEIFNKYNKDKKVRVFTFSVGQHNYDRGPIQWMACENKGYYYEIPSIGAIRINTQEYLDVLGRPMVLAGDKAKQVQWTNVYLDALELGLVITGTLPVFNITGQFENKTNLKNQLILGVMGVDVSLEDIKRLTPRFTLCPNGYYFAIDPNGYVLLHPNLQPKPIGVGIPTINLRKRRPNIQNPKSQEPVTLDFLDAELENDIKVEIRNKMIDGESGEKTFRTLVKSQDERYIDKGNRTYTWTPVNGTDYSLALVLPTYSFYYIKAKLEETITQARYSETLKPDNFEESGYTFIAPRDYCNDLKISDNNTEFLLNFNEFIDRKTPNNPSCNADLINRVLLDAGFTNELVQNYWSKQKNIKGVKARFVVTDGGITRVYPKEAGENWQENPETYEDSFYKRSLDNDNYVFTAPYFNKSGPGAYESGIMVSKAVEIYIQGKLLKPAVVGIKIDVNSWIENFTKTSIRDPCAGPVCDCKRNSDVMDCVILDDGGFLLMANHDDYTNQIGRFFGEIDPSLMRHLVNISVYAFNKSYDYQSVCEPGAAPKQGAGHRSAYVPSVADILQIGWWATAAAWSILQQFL
# T9 sequence (P54289 947-1103 partner limits assumed): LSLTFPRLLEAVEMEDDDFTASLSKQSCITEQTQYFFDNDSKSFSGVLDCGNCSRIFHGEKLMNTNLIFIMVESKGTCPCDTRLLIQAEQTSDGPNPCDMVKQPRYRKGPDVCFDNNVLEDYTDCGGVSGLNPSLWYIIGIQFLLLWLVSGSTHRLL
# [10] = target: T10, NAV1.5 (Homo sapiens, UniProt Q14524); test: Safety47 Ion Channel NAV1.5; type: cell-based; conditions: Blocker; for Emax: read-out: Max Response; for IC50: read-out: RC50 (IC50)
# T10 construct: purchased Eurofins Panlab (Safety47 Safety Scan, contract panel)
# [11] = target: T11, NMDAR (1A/2B) (Homo sapiens, UniProt Q05586+Q13224); test: Safety47 Ion Channel NMDAR (1A/2B); type: cell-based; conditions: for Emax: read-out: Max Response; for IC50: read-out: RC50 (IC50); for EC50: read-out: RC50 (EC50)
# T11 construct: purchased Eurofins Panlab (Safety47 Safety Scan, contract panel)
# [12] = target: T12, LCK (Homo sapiens, UniProt P06239); test: Safety47 Kinase Binding LCK; conditions: Kinases, Inhibitor; for Emax: read-out: Max Response; for IC50: read-out: RC50 (IC50)
# T12 construct: purchased Eurofins Panlab (Safety47 Safety Scan, contract panel)
# [13] = target: T13, AChE (Homo sapiens, UniProt P22303); test: Safety47 Enzymatic AChE; type: biochemical; conditions: Inhibitor; for Emax: read-out: Max Response; for IC50: read-out: RC50 (IC50)
# T13 construct: purchased Eurofins Panlab (Safety47 Safety Scan, contract panel)
# T13 sequence (P22303 32-614): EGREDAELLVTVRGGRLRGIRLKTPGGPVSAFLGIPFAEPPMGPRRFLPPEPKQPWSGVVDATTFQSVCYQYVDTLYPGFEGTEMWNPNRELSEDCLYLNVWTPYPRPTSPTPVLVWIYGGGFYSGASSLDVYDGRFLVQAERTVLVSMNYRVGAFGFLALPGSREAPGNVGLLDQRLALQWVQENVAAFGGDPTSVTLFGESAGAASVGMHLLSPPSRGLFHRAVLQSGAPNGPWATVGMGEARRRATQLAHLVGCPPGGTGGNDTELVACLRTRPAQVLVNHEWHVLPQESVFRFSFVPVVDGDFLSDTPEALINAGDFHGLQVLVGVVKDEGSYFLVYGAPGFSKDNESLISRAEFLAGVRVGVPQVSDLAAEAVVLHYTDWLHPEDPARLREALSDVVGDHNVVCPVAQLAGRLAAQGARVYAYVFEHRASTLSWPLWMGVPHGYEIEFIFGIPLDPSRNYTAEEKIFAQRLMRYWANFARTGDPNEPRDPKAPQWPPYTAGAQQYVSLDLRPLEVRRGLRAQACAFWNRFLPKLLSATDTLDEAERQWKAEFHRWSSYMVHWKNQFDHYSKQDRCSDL
# [14] = target: T14, COX2 (Homo sapiens, UniProt P35354); test: Safety47 Enzymatic COX2; type: biochemical; conditions: Inhibitor; for Emax: read-out: Max Response; for IC50: read-out: RC50 (IC50)
# T14 construct: purchased Eurofins Panlab (Safety47 Safety Scan, contract panel)
# T14 sequence (P35354 18-604): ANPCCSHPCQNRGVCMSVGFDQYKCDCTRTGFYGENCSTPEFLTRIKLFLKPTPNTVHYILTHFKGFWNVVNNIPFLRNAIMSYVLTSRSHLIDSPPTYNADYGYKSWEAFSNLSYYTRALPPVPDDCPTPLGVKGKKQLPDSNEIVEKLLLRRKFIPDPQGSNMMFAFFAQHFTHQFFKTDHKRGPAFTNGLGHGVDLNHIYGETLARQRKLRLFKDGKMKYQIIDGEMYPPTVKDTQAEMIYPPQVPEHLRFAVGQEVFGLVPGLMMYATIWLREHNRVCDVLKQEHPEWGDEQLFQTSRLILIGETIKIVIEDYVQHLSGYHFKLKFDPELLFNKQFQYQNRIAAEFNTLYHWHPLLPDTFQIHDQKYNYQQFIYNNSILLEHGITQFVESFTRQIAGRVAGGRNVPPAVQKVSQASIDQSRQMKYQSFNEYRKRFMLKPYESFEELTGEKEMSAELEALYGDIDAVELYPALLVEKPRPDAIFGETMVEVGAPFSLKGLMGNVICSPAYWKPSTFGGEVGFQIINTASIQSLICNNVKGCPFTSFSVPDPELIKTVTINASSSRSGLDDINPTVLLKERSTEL
compound,measurement,setting,value
"Cl.c1ccc2c(Nc3ccc4[nH]ccc4c3)nc(-c3ccncc3)nc2c1 [BC18630, N-1H-indol-5-yl-2-pyridin-4-ylquinazolin-4-amine hydrochloride]",Emax,[1]; Agonist,3.09%
same,EC50,[1]; Agonist,> 10 µM
same,Emax,[1]; Antagonist,29.8%
same,IC50,[1]; Antagonist,> 10 µM
same,Emax,[2]; Agonist,0%
same,EC50,[2]; Agonist,> 10 µM
same,Emax,[2]; Antagonist,7.76%
same,IC50,[2]; Antagonist,> 10 µM
same,Emax,[3]; Agonist,0.54%
same,EC50,[3]; Agonist,> 10 µM
same,Emax,[3]; Antagonist,44.8%
same,IC50,[3]; Antagonist,> 10 µM
same,Emax,[4]; Agonist,31.6%
same,EC50,[4]; Agonist,> 10 µM
same,Emax,[4]; Antagonist,0.25%
same,IC50,[4]; Antagonist,> 10 µM
same,Emax,[5]; Agonist,0.8%
same,EC50,[5]; Agonist,> 10 µM
same,Emax,[5]; Antagonist,26.9%
same,IC50,[5]; Antagonist,> 10 µM
same,Emax,[6]; Agonist,0%
same,EC50,[6]; Agonist,> 10 µM
same,Curve Bottom,[6]; Antagonist,-8.58
same,Curve Top,[6]; Antagonist,73.68
same,Hill,[6]; Antagonist,1
same,Emax,[6]; Antagonist,43.2%
same,IC50,[6]; Antagonist,6.01 µM
same,Emax,[7]; Agonist,12.5%
same,EC50,[7]; Agonist,> 10 µM
same,Emax,[7]; Antagonist,5.74%
same,IC50,[7]; Antagonist,> 10 µM
same,Emax,[8]; Agonist,8.65%
same,Emax,[8]; Antagonist,49.4%
same,EC50,"[8]; cAMP, Agonist",> 10 µM
same,IC50,"[8]; cAMP, Antagonist",> 10 µM
same,Emax,[9],0%
same,IC50,[9],> 10 µM
same,Emax,[10],30%
same,IC50,[10],> 10 µM
same,Emax,[11]; Blocker,0%
same,IC50,[11]; Blocker,> 10 µM
same,Emax,[11]; Opener,0%
same,EC50,[11]; Opener,> 10 µM
same,Emax,[12],49.1%
same,IC50,[12],> 10 µM
same,Emax,[13],21.2%
same,IC50,[13],> 10 µM
same,Emax,[14],8.53%
same,IC50,[14],> 10 µM
"Cl.Fc1cc(Nc2nc(-c3ccncc3)nc3ncccc23)cc2cc[nH]c12 [BC18813, N-(7-fluoro-1H-indol-5-yl)-2-pyridin-4-ylpyrido[2,3-d]pyrimidin-4-amine hydrochloride]",Emax,[1]; Agonist,1.05%
same,EC50,[1]; Agonist,> 10 µM
same,Emax,[1]; Antagonist,37.7%
same,IC50,[1]; Antagonist,> 10 µM
same,Emax,[2]; Agonist,0%
same,EC50,[2]; Agonist,> 10 µM
same,Emax,[2]; Antagonist,15.3%
same,IC50,[2]; Antagonist,> 10 µM
same,Emax,[3]; Agonist,2.22%
same,EC50,[3]; Agonist,> 10 µM
same,Emax,[3]; Antagonist,42.9%
same,IC50,[3]; Antagonist,> 10 µM
same,Emax,[4]; Agonist,47.7%
same,EC50,[4]; Agonist,> 10 µM
same,Emax,[4]; Antagonist,12.2%
same,IC50,[4]; Antagonist,> 10 µM
same,Curve Bottom,[5]; Agonist,0
same,Curve Top,[5]; Agonist,100
same,Hill,[5]; Agonist,1.07
same,Emax,[5]; Agonist,61%
same,EC50,[5]; Agonist,6.11 µM
same,Emax,[5]; Antagonist,0%
same,IC50,[5]; Antagonist,> 10 µM
same,Emax,[6]; Agonist,0%
same,EC50,[6]; Agonist,> 10 µM
same,Emax,[6]; Antagonist,45.8%
same,IC50,[6]; Antagonist,> 10 µM
same,Emax,[7]; Agonist,27.4%
same,EC50,[7]; Agonist,> 10 µM
same,Emax,[7]; Antagonist,0.13%
same,IC50,[7]; Antagonist,> 10 µM
same,Emax,[8]; Agonist,24.4%
same,Emax,[8]; Antagonist,53.3%
same,EC50,"[8]; cAMP, Agonist",> 10 µM
same,Curve Bottom,"[8]; cAMP, Antagonist",-9.93
same,Curve Top,"[8]; cAMP, Antagonist",100
same,Hill,"[8]; cAMP, Antagonist",1.01
same,IC50,"[8]; cAMP, Antagonist",7.46 µM
same,Emax,[9],0%
same,IC50,[9],> 10 µM
same,Emax,[10],8.29%
same,IC50,[10],> 10 µM
same,Emax,[11]; Blocker,13.8%
same,IC50,[11]; Blocker,> 10 µM
same,Emax,[11]; Opener,0%
same,EC50,[11]; Opener,> 10 µM
same,Emax,[12],11.2%
same,IC50,[12],> 10 µM
same,Emax,[13],6.26%
same,IC50,[13],> 10 µM
same,Emax,[14],17.9%
same,IC50,[14],> 10 µM
